Measured values reported in patent publication US7473711B2, “Androgen modulators” (Pfizer Inc., priority 2004, dated 2009).
Read-outs that look alike come from different tables or passages of the source.

Biological target: T1, hAR (human androgen receptor) (Homo sapiens, UniProt P10275)
T1 construct: made in house; host or cells: baculovirus/Sf9 insect cells (extract)
T1 sequence (P10275 1-920): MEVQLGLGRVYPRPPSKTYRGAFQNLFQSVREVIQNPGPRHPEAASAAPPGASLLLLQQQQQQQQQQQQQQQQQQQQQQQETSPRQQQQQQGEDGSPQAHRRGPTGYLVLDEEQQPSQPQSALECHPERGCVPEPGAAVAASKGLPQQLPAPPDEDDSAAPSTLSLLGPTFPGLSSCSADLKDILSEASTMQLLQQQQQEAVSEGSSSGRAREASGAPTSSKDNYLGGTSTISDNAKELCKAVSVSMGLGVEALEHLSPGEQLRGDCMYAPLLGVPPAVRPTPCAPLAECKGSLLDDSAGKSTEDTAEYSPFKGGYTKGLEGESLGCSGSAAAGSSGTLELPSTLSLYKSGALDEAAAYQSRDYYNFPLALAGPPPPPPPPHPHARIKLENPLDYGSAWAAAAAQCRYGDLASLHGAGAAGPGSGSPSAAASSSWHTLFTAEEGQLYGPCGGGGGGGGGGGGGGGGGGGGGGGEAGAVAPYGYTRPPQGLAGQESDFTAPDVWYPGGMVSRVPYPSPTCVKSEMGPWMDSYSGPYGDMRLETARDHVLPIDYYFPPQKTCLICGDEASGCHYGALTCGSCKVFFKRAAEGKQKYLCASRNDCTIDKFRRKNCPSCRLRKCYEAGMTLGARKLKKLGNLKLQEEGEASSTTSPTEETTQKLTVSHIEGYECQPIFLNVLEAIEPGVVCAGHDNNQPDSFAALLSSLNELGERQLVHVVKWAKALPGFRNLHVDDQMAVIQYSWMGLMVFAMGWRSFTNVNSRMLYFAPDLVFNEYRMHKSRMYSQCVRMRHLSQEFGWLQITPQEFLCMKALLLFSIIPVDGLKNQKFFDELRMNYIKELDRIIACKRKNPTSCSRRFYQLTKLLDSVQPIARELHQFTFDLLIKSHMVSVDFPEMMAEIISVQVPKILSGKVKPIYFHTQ
Assay: Competitive binding analysis on hAR extracts with 3H-DHT tracer
Protocol: The compounds of Formula I have affinity for the androgen receptor. […] The description below describes how the assay was carried out.
Competitive binding analysis was performed on baculovirus/Sf9 generated hAR extracts in the presence or absence of different concentrations of test agent and a fixed concentration of ^3H-dihydrotestosterone (^3H-DHT) as tracer. This binding assay method is a modification of a protocol previously described (Liao S., et. al. J. Steroid Biochem. 20:11-17 1984). Briefly, progressively decreasing concentrations of compounds are incubated in the presence of hAR extract (Chang et al. P.N.A.S. Vol. 89, pp. […], 1992), hydroxylapatite, and 1 nM ^3H-DHT for one hour at 4° C. Subsequently, the binding reactions are washed three times to completely remove excess unbound ^3H-DHT. hAR bound ^3H-DHT levels are determined in the presence of compounds (i.e. competitive binding) and compared to levels bound when no competitor is present (i.e. maximum binding). Compound binding affinity to the hAR is expressed as the concentration of compound at which one half of the maximum binding is inhibited. Table II below provides the results that were obtained for selected compounds (reported data is the mean of multiple tests as shown below)

Molecule N#Cc1ccc(OCCCCCOc2ccc(C#N)c(C(F)(F)F)c2)cc1C(F)(F)F [Example 24] has an IC50 (baculovirus/Sf9 hAR extract, 1 nM 3H-DHT, one hour at 4° C, mean of multiple tests, read-out: AR Binding IC50) of 128 nM.
For COCC(COc1ccccc1)Oc1ccc(C#N)c(C(F)(F)F)c1 (stereo not drawn) [Example 27, 4-(1-Methoxymethyl-2-phenoxy-ethoxy)-2-trifluoromethyl-benzonitrile], the IC50 was 5 nM.
N#Cc1ccc(OC(CO)COc2ccccc2)cc1C(F)(F)F (stereo not drawn) [Example 28, 4-(1-Hydroxymethyl-2-phenoxy-ethoxy)-2-trifluoromethyl-benzonitrile] was tested, and the IC50 was 81 nM.
